Here are results for one compound from patent US10899741B2, “3,4-bipyridyl pyrazole derivative, and preparation method therefor and medical application thereof” (Jiangsu Hengrui Medicine Co., Ltd., priority 2016, dated 2021).

As a reminder, the IC50 is the concentration that inhibits the measured activity by half. A lower IC50 goes with greater potency.

The structures appear in SMILES notation.

The test addresses RIPK2 kinase (Homo sapiens (Human), UniProt O43353). Put plainly: Inhibition of RIPK2 kinase activity (ADP-Glo kit). The format is biochemical. The note with it: ATP 50 μM, 27° C. 2.5 hours. As for the experimental part: The inhibition of RIPK2 kinase activity in vitro was determined by the following method.
The inhibition effect of the compounds of the present invention on RIPK2 kinase activity was determined by the following experimental method:
RIPK2 kinase assay kit (V4084, Promega) was used to assay enzyme activity. 2 μl of RIPK2 enzyme solution (the final concentration of enzyme in the reaction system was 0.5 ng/μL) formulated with reaction buffer (40 mM Tris pH 7.5, 20 mM MgCl2, 0.1 mg/ml BSA), 1 μl of a 3-fold gradient dilution of Compound 1 dissolved in 5% DMSO, and 2 μl of a mixed solution of ATP and MBP substrate peptide (the final concentration of ATP was 50 μM, and the final concentration of substrate was 0.2 μg/μL) were added successively to a 384-well plate (4514, Corning). After reaction at 27° C. for 2.5 hours, 5 μl of ADP-Glo solution in the kit was added to each well, then the plate was placed at 27° C. for 40 minutes. 10 μl of kinase assay reagent was then added to each well, then the plate was placed at 27° C. for 30 minutes. The chemiluminescence signal values were measured with a Victor 3 (PerkinElmer) multi-function microplate reader. The IC50 values of the compounds for enzyme inhibition were calculated using Graphpad prism software based on each concentration of the compound and the corresponding signal value thereof.

Chain of RIPK2 kinase (O43353 whole entry): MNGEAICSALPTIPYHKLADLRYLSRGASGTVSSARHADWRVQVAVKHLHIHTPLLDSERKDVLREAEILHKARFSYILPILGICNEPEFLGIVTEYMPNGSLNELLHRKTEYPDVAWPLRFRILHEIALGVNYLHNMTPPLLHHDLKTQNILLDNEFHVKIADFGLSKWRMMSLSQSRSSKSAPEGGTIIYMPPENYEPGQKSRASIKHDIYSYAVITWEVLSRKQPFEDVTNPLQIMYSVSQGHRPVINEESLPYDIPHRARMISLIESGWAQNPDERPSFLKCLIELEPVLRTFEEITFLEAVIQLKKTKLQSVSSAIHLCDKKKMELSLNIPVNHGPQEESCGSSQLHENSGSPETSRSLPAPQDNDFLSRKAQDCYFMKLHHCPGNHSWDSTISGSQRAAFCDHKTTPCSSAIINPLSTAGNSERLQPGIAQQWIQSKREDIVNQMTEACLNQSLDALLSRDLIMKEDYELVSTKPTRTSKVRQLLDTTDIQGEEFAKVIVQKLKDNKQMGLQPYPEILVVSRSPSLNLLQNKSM

`Cc1cccc(-c2nn(C3CCC3)cc2-c2ccnc(-c3ccc(S(C)(=O)=O)cc3)c2)n1` [Example 1, 4-(1-Cyclobutyl-3-(6-methylpyridin-2-yl)-1H-pyrazol-4-yl)-2-(4-(methylsulfonyl)phenyl)pyridine] yielded a 50% inhibitory concentration (IC50) of 1.2 µM.
